The Kd is a measure of binding affinity in units of concentration.

Results on 15 molecules are retold here after paper PMC4355058 (Analytical biochemistry, 2014).

Where a name gives a salt, the structure may show the parent alone. Read-outs that look alike come from different tables or passages of the source. Some results are limits rather than exact numbers.

In one test the target is A2a-8M receptor (Homo sapiens, UniProt P29274, A54L/K122A/L202A/L235A/N154A/R107A/S277A/T88A/V239A). Nature of the test: Isothermal chemical denaturation.
For the next test, the system named is WT A2a receptor. Conditions: cited from earlier work.
The target of test [1] is A2a-8M (Homo sapiens, UniProt P29274, A54L/K122A/L202A/L235A/R107A/S277A/T88A/V239A). Nature of the test: SPR analysis of small molecule binding. A general note: SPR reads the build-up and loss of mass on a sensor chip optically.
The target of the next test is A2aR. Conditions: read-out: Kd, SPR study at 10°C; cited from earlier work.
For test [2], the target named is A2a-8M. As to the kind of experiment: SPR analysis of small molecule binding. Conditions: read-out: SPR Kd.
Setting [3] is: [L] = 21 μM, 25°C, 338 nm, apo 1.37.
Where [4] appears, read: [L] = 21 μM, 25°C, 338 nm, apo 2.90.
Setting [5] is: [L] = 21 μM, 25°C, protein […], 338 nm, apo 3.96.
[6] abbreviates: [L] = 2 μM, 25°C, 338 nm (SCH58261 at 316 nm), apo 2.90 (338 nm), 2.88 (316 nm).
Setting [7] is: [L] = 2 μM, 25°C, 338 nm (SCH58261 at 316 nm), apo 1.37.

Chain of A2a-8M receptor (P29274 1-316 A54L/T88A/R107A/K122A/N154A/L202A/L235A/V239A/S277A): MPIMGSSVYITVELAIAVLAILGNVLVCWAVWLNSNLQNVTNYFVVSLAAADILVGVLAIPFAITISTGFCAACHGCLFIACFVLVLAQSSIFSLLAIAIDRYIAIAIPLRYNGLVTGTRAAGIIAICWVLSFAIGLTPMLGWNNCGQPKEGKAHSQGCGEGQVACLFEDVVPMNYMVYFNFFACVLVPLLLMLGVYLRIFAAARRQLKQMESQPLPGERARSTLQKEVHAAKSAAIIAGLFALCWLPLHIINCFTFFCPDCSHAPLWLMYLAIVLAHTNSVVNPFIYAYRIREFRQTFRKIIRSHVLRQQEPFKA
Chain of A2a-8M (Homo sapiens, UniProt P29274, A54L/K122A/L202A/L235A/R107A/S277A/T88A/V239A) (P29274 1-317 A54L/T88A/R107A/K122A/L202A/L235A/V239A/S277A): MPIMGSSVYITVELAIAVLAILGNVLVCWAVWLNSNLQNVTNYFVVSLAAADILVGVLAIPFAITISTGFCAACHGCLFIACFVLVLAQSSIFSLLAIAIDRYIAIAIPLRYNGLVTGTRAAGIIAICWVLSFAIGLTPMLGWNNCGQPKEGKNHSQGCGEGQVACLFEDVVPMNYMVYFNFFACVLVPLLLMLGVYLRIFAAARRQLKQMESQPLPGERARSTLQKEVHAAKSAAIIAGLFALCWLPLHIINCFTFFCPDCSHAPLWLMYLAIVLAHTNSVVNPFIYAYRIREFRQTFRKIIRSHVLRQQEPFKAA

`CCOc1nc2c(N)ncnc2n1CC` [ANR94] yielded a m at A2a-8M receptor (setting [3]) of 1.65 kcal/mol×M. Also, the “C½ (midpoint of denaturation curve)” value on A2a-8M receptor (setting [4]) turned out to be 3.53 M GuHCl. For the same molecule, on A2a-8M receptor (setting [5]), the “ΔG (Gibbs energy of protein stability in presence of ligand)” value is on record as 5.82 kcal/mol.

For the molecule `CCNC(=O)[C@H]1O[C@@H](n2cnc3c(N)nc(NCCc4ccc(CCC(=O)O)cc4)nc32)[C@H](O)[C@@H]1O` [CGS21680], the binding affinity in the test with WT A2a receptor was above 10 µM.

Consider `Cn1c(=O)c2c(ncn2C)n(C)c1=O` [Caffeine], for which the “C½ (midpoint of denaturation curve)” value at A2a-8M receptor (setting [6]) came to 3.28 M GuHCl.

On A2a-8M receptor (setting [3]), `N=C(N)NC(=O)Cc1c(Cl)cccc1Cl` [Guanfacine HCl] registered a m of 1.37 kcal/mol×M. Also, the “C½ (midpoint of denaturation curve)” value on A2a-8M receptor (setting [4]) is 2.25 M GuHCl. Besides, at A2a-8M receptor (setting [5]), the “ΔG (Gibbs energy of protein stability in presence of ligand)” value is recorded as 3.08 kcal/mol.

Take `CCCCC#Cc1nc(NC)c2ncn([C@@H]3O[C@H](CO)[C@@H](O)[C@H]3O)c2n1` [Hemado]: the m on A2a-8M receptor (setting [3]) is given as 1.77 kcal/mol×M. Further, the “C½ (midpoint of denaturation curve)” value at A2a-8M receptor (setting [4]) is given as 2.59 M GuHCl. For the same molecule, the “ΔG (Gibbs energy of protein stability in presence of ligand)” value at A2a-8M receptor (setting [5]) amounted to 4.59 kcal/mol.

Take `N#Cc1c(N)nc(SCc2ncc[nH]2)c(C#N)c1-c1ccc(O)cc1` [LUF5834]: the m on A2a-8M receptor (setting [7]) was determined as 1.90 kcal/mol×M. Further, on A2a-8M receptor (setting [6]), the “C½ (midpoint of denaturation curve)” value is recorded as 3.18 M GuHCl.

Turning to `CCO/C(O)=C1\C(C)=NC(c2ccccc2)=C(C(=O)OCc2ccc([N+](=O)[O-])cc2)C1C#Cc1ccccc1` (stereo not shown) [MRS1334], the Kd amounted to 5900 nM at A2a-8M [1] and 5500 nM on A2a-8M receptor. This molecule also displayed a m on A2a-8M receptor (setting [7]) of 1.30 kcal/mol×M. The “C½ (midpoint of denaturation curve)” value at A2a-8M receptor (setting [6]) worked out at 3.20 M GuHCl.

For `Nc1nc(SCCc2ccc(S(=O)(=O)O)cc2)nc2c1ncn2[C@@H]1O[C@H](CO)[C@@H](O)[C@H]1O` [PSB0777], the m at A2a-8M receptor (setting [3]) came to 1.56 kcal/mol×M. In addition, the “C½ (midpoint of denaturation curve)” value on A2a-8M receptor (setting [4]) came to 2.22 M GuHCl. In addition, the “ΔG (Gibbs energy of protein stability in presence of ligand)” value at A2a-8M receptor (setting [5]) is reported as 3.47 kcal/mol.

Consider `CCCn1c(=O)[nH]c2nc(-c3ccc(S(=O)(=O)O)cc3)[nH]c2c1=O` [PSB1115], for which the Kd on A2aR is 158 nM. The m at A2a-8M receptor (setting [7]) is 1.63 kcal/mol×M. For the same molecule, on A2a-8M receptor (setting [6]), the “C½ (midpoint of denaturation curve)” value stood at 3.82 M GuHCl.

In the case of `Nc1nc2c(cnn2CCc2ccccc2)c2nc(-c3ccco3)nn12` [SCH58261], the Kd at A2a-8M [2] was 14 nM. For the same molecule, at A2a-8M receptor, the “C½ (midpoint of denaturation curve)” value turned out to be 3.91 M GuHCl, the m stood at 1.80 kcal/mol×M and the “ΔG (Gibbs energy of protein stability in presence of ligand)” value came to 7.01 kcal/mol.

For the molecule `COc1ccc(CCCn2ncc3c2nc(N)n2nc(-c4ccco4)nc32)cc1` [SCH442416], in the test with WT A2a receptor, the binding affinity is recorded as 50 pm.

Take `CN1CCc2cccc(Cl)c2CC1.Cl` [SKF86466 HCl]: the m at A2a-8M receptor (setting [3]) is listed as 1.55 kcal/mol×M. The “C½ (midpoint of denaturation curve)” value at A2a-8M receptor (setting [4]) is 2.18 M GuHCl. Further, the “ΔG (Gibbs energy of protein stability in presence of ligand)” value at A2a-8M receptor (setting [5]) turned out to be 3.38 kcal/mol.

On to `COC1CCN(c2cccc(-c3cc(NC(C)=O)nc(-n4nc(C)cc4C)n3)n2)CC1` [TC-G1004], for which, on A2a-8M receptor ([L] = 0.4 μM, 25°C, 338 nm (SCH442416 at 316 nm), apo 1.37), the m worked out at 1.42 kcal/mol×M.

`c1ccc(NCc2ccc(CNc3ccccn3)cc2)nc1` [WZ811] showed a m on A2a-8M receptor (setting [7]) of 1.19 kcal/mol×M. Also, the “C½ (midpoint of denaturation curve)” value at A2a-8M receptor (setting [6]) is 2.98 M GuHCl.

As to `Cl.Cl.OCCOCCN1CCN(Cc2cccc(Oc3ccccc3)c2)CC1` [ZK756326], the m on A2a-8M receptor (setting [3]) is listed as 1.50 kcal/mol×M. Besides, on A2a-8M receptor (setting [4]), the “C½ (midpoint of denaturation curve)” value was found to be 3.41 M GuHCl. The “ΔG (Gibbs energy of protein stability in presence of ligand)” value at A2a-8M receptor (setting [5]) amounted to 5.11 kcal/mol.
